US10085973B2, “Pharmaceutical composition containing a compound having a thrombopoietin receptor agonistic activity” (Shionogi & Co., Ltd., priority 2012, dated 2018)

Experiment: PK model from phase 1 trial in healthy male adults (plasma concentration)
Format: in vivo, human
Description: Using the plasma concentration of the drug and the platelet count data of 54 cases obtained in phase 1 trial carried out in Japan to healthy male adults, a PK/PD model was constructed that can describe pharmacokinetics and a profile of a platelet count. The PK model describing pharmacokinetics was a three-compartment model including three compartments in the absorption process in order to explain the delay in absorption. The PD model describing the relation between the plasma concentration and the profile of platelets counts was a model including five compartments in order to explain the maturation process of platelets. […] We assumed that the distributions of respective model parameters and the distributions of the residual errors of the models follow a log-normal distribution. Parameters were estimated by using the first order conditional estimation method with interaction in a software NONMEM (version VI, level 2.0).

For `CCCCCCO[C@@H](C)c1cccc(-c2csc(NC(=O)c3cc(Cl)c(/C=C(\C)C(=O)O)c(Cl)c3)n2)c1OC` [lusutrombopag, (E)-3-[2,6-dichloro-4-[4-[3-[(S)-1-hexyloxyethyl]-2-methoxyphenyl]-thiazol-2-ylcarbamoyl]-phenyl]-2-methylacrylic acid], the “CL (apparent total clearance), mean” value was 0.776 L/h, the “Intra-individual variability (PK model, plasma concentration)” value was 12.1% and the “Q3/F (inter-compartmental clearance), mean” value was 0.946 L/h. For the same molecule, the “Q4/F (inter-compartmental clearance), mean” value was 0.0262 L/h, the “V3/F (volume of distribution of peripheral compartment), mean” value was 6.28 L and the “V4/F (volume of distribution of peripheral compartment), mean” value was 2.71 L. For the same molecule, the “ka (transfer rate constant from absorption compartments to central compartment), mean” value (shortened to “ka”) (Fasting + solution) was 0.563 h⁻¹, the “ktr (inter-absorption-compartmental transfer rate constant), mean” value (from here on “ktr”) (Fasting + solution) was 4.19 h⁻¹ and the “ka” value (Postprandial + solution) was 0.285 h⁻¹. The “ktr” value (Postprandial + solution) was 2.15 h⁻¹, the “ka” value (Postprandial + tablet) was 0.854 h⁻¹ and the “ktr” value (Postprandial + tablet) was 1.38 h⁻¹. It also gave a Vd/F (male, human, plasma, oral, × (1 + (BW − 63) × 0.0172), BW body weight kg, read-out: V2/F (volume of distribution of the central compartment), mean) of 15.9 L.
